Test results reported in PubChem BioAssay (NCI).
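Assay format: 96-well plates, 48-hour exposure. Definition used: TGI = concentration required for complete inhibition of growth.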 Where a SMILES comes first, the peptide text is derived from it. The star is where a group is joined. Fmoc = O=C(OCC1c2ccccc2-c2ccccc21)*; Boc = CC(C)(C)OC(=O)*

Experiments:
Test in all cases: NCI anticancer screen, dose series, 48 h
RXF 393 renal = tested on: RXF 393 renal
SF-539 CNS = tested on: SF-539 CNS
HT29 colon = tested on: HT29 colon
MOLT-4 leukemia = tested on: MOLT-4 leukemia
SNB-75 CNS = tested on: SNB-75 CNS
HS 578T breast = tested on: HS 578T breast
TK-10 renal = tested on: TK-10 renal
SK-OV-3 ovarian = tested on: SK-OV-3 ovarian
CAKI-1 renal = tested on: CAKI-1 renal
OVCAR-5 ovarian = tested on: OVCAR-5 ovarian
SK-MEL-2 melanoma = tested on: SK-MEL-2 melanoma
SF-268 CNS = tested on: SF-268 CNS
HL-60(TB) leukemia = tested on: HL-60(TB) leukemia
U251 CNS = tested on: U251 CNS
LOX IMVI melanoma = tested on: LOX IMVI melanoma
NCI/ADR-RES ovarian = tested on: NCI/ADR-RES ovarian
NCI-H226 lung = tested on: NCI-H226 lung
COLO 205 colon = tested on: COLO 205 colon
SW-620 colon = tested on: SW-620 colon
OVCAR-4 ovarian = tested on: OVCAR-4 ovarian

Row | Structure (SMILES) | TGI (RXF 393 renal) | TGI (SF-539 CNS) | TGI (HT29 colon) | TGI (MOLT-4 leukemia) | TGI (SNB-75 CNS) | TGI (HS 578T breast) | TGI (TK-10 renal) | TGI (SK-OV-3 ovarian) | TGI (CAKI-1 renal) | TGI (OVCAR-5 ovarian) | TGI (SK-MEL-2 melanoma) | TGI (SF-268 CNS) | TGI (HL-60(TB) leukemia) | TGI (U251 CNS) | TGI (LOX IMVI melanoma) | TGI (NCI/ADR-RES ovarian) | TGI (NCI-H226 lung) | TGI (COLO 205 colon) | TGI (SW-620 colon) | TGI (OVCAR-4 ovarian)
1 | CC(C)(C)OC(=O)NCCCCC(NC(=O)C(Cc1c[nH]c2ccccc12)NC(=O)OCC1c2ccccc2-c2ccccc21)C(=O)N1CCCC1C(=O)NCC(N)=O (stereo not given) (Fmoc-WK(Boc)PG-NH2; configuration not given here) | > 100 µM | > 100 µM | > 100 µM | > 100 µM | > 100 µM | > 100 µM | > 100 µM | > 100 µM | > 100 µM | > 100 µM | > 100 µM | > 100 µM | > 100 µM | > 100 µM | > 100 µM | > 100 µM | > 100 µM | > 100 µM | > 100 µM | > 100 µM
2 | CC(=O)C1=C(C)N(c2ccc(C)cc2)C2(O)C3=C(C(=O)c4ccccc4C3=O)C(O)=CC12Cl (stereo not given) | 50.8 µM | > 100 µM | 60.1 µM | > 100 µM | > 100 µM | > 100 µM | 97 µM | > 100 µM | 87.1 µM | 71.6 µM | 33 µM | > 100 µM | > 100 µM | > 100 µM | > 100 µM | 28.3 µM | > 100 µM | 63.9 µM | > 100 µM | > 100 µM
3 | CC(OC(=O)C(CC(=O)OC(C)(C)C)NC(=O)OC(C)(C)C)C(=O)OCc1ccccc1 (stereo not given) | > 100 µM | > 100 µM | > 100 µM | > 100 µM | > 100 µM | > 100 µM | > 100 µM | > 100 µM | > 100 µM | > 100 µM | > 100 µM | > 100 µM | > 100 µM | > 100 µM | > 100 µM | > 100 µM | > 100 µM | > 100 µM | > 100 µM | > 100 µM
4 | CCOc1cc2oc(C)cc(=O)c2c(OC)c1C=Nc1ccc(Cn2c(C)nc3ccccc32)cc1 | > 100 µM | > 100 µM | > 100 µM | > 100 µM | > 100 µM | > 100 µM | > 100 µM | > 100 µM | > 100 µM | > 100 µM | > 100 µM | > 100 µM | > 100 µM | > 100 µM | > 100 µM | > 100 µM | > 100 µM | > 100 µM | > 100 µM | > 100 µM
5 | CCOC1Oc2ccccc2-c2nc(SC)ncc21 (stereo not given) | > 100 µM | > 100 µM | > 100 µM | > 100 µM | > 100 µM | > 100 µM | > 100 µM | > 100 µM | > 100 µM | > 100 µM | > 100 µM | > 100 µM | > 100 µM | > 100 µM | > 100 µM | > 100 µM | > 100 µM | > 100 µM | > 100 µM | > 100 µM
6 | COC1OC(COC(=O)c2cc(O)c(O)c(O)c2)C(OC(=O)c2cc(O)c(O)c(O)c2)C(OC(=O)c2cc(O)c(O)c(O)c2)C1OC(=O)c1cc(O)c(O)c(O)c1 (stereo not given) | > 100 µM | 37.1 µM | > 100 µM | 70.6 µM | > 100 µM | > 100 µM | > 100 µM | 54 µM | > 100 µM | > 100 µM | > 100 µM | > 100 µM | 50.1 µM | > 100 µM | > 100 µM | 98.4 µM | 66.8 µM | > 100 µM | > 100 µM | > 100 µM
7 | C[C@@H](NC(=O)c1ccc(CNC(=O)/C=C/c2cccc(Oc3ccccc3)c2)cc1)c1ccccc1 | 12.2 µM | 30.6 µM | > 100 µM | > 100 µM | 20.1 µM | 33.4 µM | > 89.2 µM | > 100 µM | 44.2 µM | > 100 µM | > 100 µM | 78 µM | > 100 µM | > 100 µM | > 100 µM | > 100 µM | > 73.5 µM | > 100 µM | > 100 µM | > 100 µM
8 | Cc1cccc(-c2cc(=O)c3c(C)cc(C)nc3[nH]2)c1 | > 100 µM | 12.1 µM | 19.1 µM | > 100 µM | 7.36 µM | > 20.3 µM | > 100 µM | > 100 µM | > 100 µM | > 100 µM | > 100 µM | > 100 µM | 4.34 µM | 37.6 µM | > 100 µM | 4.68 µM | 31.4 µM | 8.16 µM | > 19.7 µM | > 100 µM
9 | CC(=O)OC12c3ccccc3-c3ccccc3C1C1C(=O)OC(=O)C12 (stereo not given) | > 10 µM | > 10 µM | > 10 µM | > 10 µM | > 10 µM | > 10 µM | > 10 µM | > 10 µM | > 10 µM | > 10 µM | > 10 µM | > 10 µM | > 10 µM | > 10 µM | > 10 µM | > 10 µM | > 10 µM | > 10 µM | > 10 µM | > 10 µM
10 | O=C1C=CC(=O)c2c1ccc1c3ccccc3n(Cc3cccc([N+](=O)[O-])c3)c21 | 39.2 µM | > 80.6 µM | > 73.1 µM | 37.7 µM | > 100 µM | > 100 µM | 44.8 µM | > 100 µM | 31 µM | > 100 µM | > 100 µM | > 100 µM | 15.3 µM | > 100 µM | > 100 µM | > 90.3 µM | > 100 µM | 21.2 µM | 32.4 µM | > 63.8 µM
11 | CCN(CC)Cc1c(/C=C\c2cc(OC)c(OC)c(OC)c2)ccc(OC)c1O | 9.35 µM | 9.24 µM | 9.48 µM | > 100 µM | 9.49 µM | 6.22 µM | > 100 µM | 10.2 µM | > 100 µM | > 100 µM | > 37.1 µM | 52.2 µM | > 60.8 µM | 17.2 µM | > 100 µM | 6.29 µM | 27.3 µM | 7.36 µM | > 100 µM | > 75.5 µM
12 | CC(C)Cc1cc2c(cc1O)CCC1C2CC[C@@]2(C)C1CC[C@@H]2O (stereo not given in full) | 16.3 µM | 40.6 µM | 21.6 µM | 17.2 µM | 33.3 µM | 23.7 µM | 23.1 µM | 24.3 µM | 35.6 µM | 34.2 µM | 15.7 µM | 39.4 µM | 8 µM | 27 µM | 18.2 µM | 20.9 µM | 14.2 µM | 28.9 µM | 25.4 µM | 24.3 µM
13 | Fc1ccc(-c2sc(-c3cccs3)cc2Cc2cccs2)cc1 | > 100 µM | > 100 µM | > 100 µM | > 100 µM | > 100 µM | > 100 µM | > 100 µM | > 100 µM | > 100 µM | > 100 µM | > 100 µM | > 100 µM | > 100 µM | > 100 µM | > 100 µM | > 100 µM | > 100 µM | > 100 µM | > 100 µM | > 100 µM
14 | O=C1C=C(OCCCCl)C(=O)c2c(O)ccc(O)c21 | 3.09 µM | 2.76 µM | 1.31 µM | 6.06 µM | 2.69 µM | 6.56 µM | 3.46 µM | 3.85 µM | 3.4 µM | 2.85 µM | 2.43 µM | 3.16 µM | 3.03 µM | 3.56 µM | 0.659 µM | 7.3 µM | 3.7 µM | 0.642 µM | 2.3 µM | 1.71 µM
15 | COc1cc(-c2[o+]c3cc(O)cc(O)c3cc2O)cc(O)c1O | > 100 µM | > 100 µM | > 100 µM | > 100 µM | > 100 µM | > 100 µM | > 100 µM | > 100 µM | > 100 µM | > 100 µM | > 100 µM | > 100 µM | > 100 µM | > 100 µM | > 100 µM | > 100 µM | > 100 µM | > 100 µM | > 100 µM | > 100 µM
16 | O=c1[nH]c(=O)n(C2OC(CO)C(O)C2O)cc1Oc1ccccc1 (stereo not given) | > 100 µM | > 100 µM | > 100 µM | > 100 µM | > 100 µM | > 100 µM | > 100 µM | > 100 µM | > 100 µM | > 100 µM | > 100 µM | > 100 µM | > 100 µM | > 100 µM | > 100 µM | > 100 µM | > 100 µM | > 100 µM | > 100 µM | > 100 µM
17 | CCN(CC)CCNc1ccc2nnn3c4ccc(O)cc4c(=O)c1c23 | 5.96 µM | 18.4 µM | 15 µM | 4.76 µM | 14.1 µM | 26.6 µM | 18.9 µM | 40.3 µM | 13.4 µM | 22.4 µM | 25.2 µM | 21.7 µM | 25.1 µM | 18.2 µM | 4.05 µM | 12.2 µM | 14.7 µM | 16.9 µM | 15.6 µM | 12.6 µM
18 | O=C(CSc1nc2ccc(I)cc2c(=O)n1Cc1ccccc1)NNC(=O)c1ccccc1 | 17.5 µM | 8.11 µM | > 100 µM | 23.5 µM | 10.3 µM | 9.4 µM | 27.4 µM | 44.9 µM | 12.3 µM | 40.5 µM | 19.2 µM | 20.8 µM | > 100 µM | > 100 µM | > 100 µM | 49 µM | 15.5 µM | > 100 µM | > 100 µM | 57.4 µM
19 | c1ccc2c(c1)CCc1[nH]c3c(c1-2)-c1ccccc1CC3 | > 100 µM | > 100 µM | > 100 µM | > 100 µM | > 100 µM | > 100 µM | > 100 µM | > 100 µM | > 100 µM | > 100 µM | > 100 µM | > 100 µM | > 100 µM | > 100 µM | > 100 µM | > 100 µM | > 100 µM | > 100 µM | > 100 µM | > 100 µM
